Source: patent publication US10131652B2, “Pyrimidinyloxy benzene derivatives as herbicides” (E. I. DU PONT DE NEMOURS AND COMPANY, priority 2014, dated 2018)
Where two headings read alike, the source gives them in different places.

Assays:
Assay type in all cases: in vivo
[1] = tested on: waterhemp_RES1 (ALS & Triazine resistant common waterhemp, Amaranthus rudis); test: Test F postemergence plant response; conditions: scale 0 to 100
Summary of the method: (§1)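 Postemergence application to plants 2–18 cm tall (1- to 4-leaf stage), then held in greenhouse 14–21 days. Visual rating against untreated controls on a 0–100 scale (0 no effect, 100 complete control).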

[2] = tested on: waterhemp_RES2 (ALS & HPPD resistant common waterhemp, Amaranthus rudis); test: Test F postemergence plant response; conditions: scale 0 to 100
Summary of the method: as §1

kochia (Kochia scoparia) [3] = test: Test D postemergence plant response; conditions: Bassia scoparia, post-emergence
Summary of the method: (§2)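 Scores reflect visual plant response relative to untreated controls on a 0 to 100 scale, where 100 means complete control. Treatment was postemergence on 2–18 cm plants in peat-based potting medium, with greenhouse assessment 13–15 days later.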

wild oat (Avena fatua) = test: Test D postemergence plant response; conditions: Avena fatua, post-emergence
Summary of the method: as §2

[4] = tested on: palmer pigweed (Amaranthus palmeri); test: Test F pre-/postemergence plant response; conditions: Amaranthus palmeri, scale 0 to 100, read-out: Plant response rating, Pigweed, Palmer
Summary of the method: (§3)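 Seeds were sown in silt loam soil and sprayed preemergence; separately, plants at the 1- to 4-leaf stage (2 to 18 cm) received postemergence sprays. Test chemicals were in a non-phytotoxic solvent mixture with surfactant. After 14 to 21 days in a greenhouse, injury was visually rated 0 (no effect) to 100 (complete control) against untreated controls.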

kochia (Kochia scoparia) [5] = test: Test F pre-/postemergence plant response; conditions: Bassia scoparia, scale 0 to 100, read-out: Plant response rating, Kochia; for pest or weed control at 16 g/ha: 16 g ai/ha; for pest or weed control at 31 g/ha: 31 g ai/ha; for pest or weed control at 125 g/ha: 125 g ai/ha
Summary of the method: as §3

[6] = tested on: nightshade (eastern black nightshade, Solanum ptycanthum); test: Test F pre-/postemergence plant response; conditions: Solanum, pre-emergence, scale 0 to 100, read-out: Plant response rating, Nightshade
Summary of the method: as §3

[7] = tested on: Italian ryegrass (Lolium multiflorum); test: Test F pre-/postemergence plant response; conditions: Lolium multiflorum, scale 0 to 100, read-out: Plant response rating, Ryegrass, Italian; for pest or weed control at 16 g/ha: 16 g ai/ha; for pest or weed control at 31 g/ha: 31 g ai/ha; for pest or weed control at 125 g/ha: 125 g ai/ha
Summary of the method: as §3

kochia (Kochia scoparia) [8] = test: Test B pre-/postemergence plant response
Summary of the method: (§4)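 Seeds in loam–sand blend given preemergence soil spray; separately, plants at one- to two-leaf stage (2–10 cm) sprayed postemergence, compounds in non-phytotoxic solvent with surfactant. Injury rated visually versus untreated controls after ~10 days in greenhouse, 0 (no effect) to 100 (complete control).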

[9] = tested on: ragweed (common ragweed, Ambrosia elatior); test: Test B pre-/postemergence plant response
Summary of the method: as §4

[10] = tested on: Italian ryegrass (Lolium multiflorum); test: Test B pre-/postemergence plant response
Summary of the method: as §4

[11] = post-emergence, 62 g ai/ha, Postemergence
[12] = 31 g ai/ha, Preemergence, 0 to 100 scale where 0 is no effect and 100 is complete control
[13] = 125 g ai/ha, postemergence, 0 to 100 scale, 0 no effect, 100 complete control
[14] = Postemergence, 31 g ai/ha, 0 to 100 scale (0 no effect, 100 complete control)
[15] = Preemergence, 125 g ai/ha, 0 to 100 scale (0 no effect, 100 complete control)

**Q.** `Fc1cccc(Oc2ncc(Br)cn2)c1-c1cc(C(F)F)no1` [Compound 145, 5-bromo-2-[2-[3-(difluoromethyl)-5-isoxazolyl]-3-fluorophenoxy]pyrimidine] was tested. Which “Plant response rating, Waterhemp_RES1” value ([1]; 16 g ai/ha Postemergence) did it give?
**A.** Its value is 95.

**Q.** What about the “Plant response rating, Waterhemp_RES1” value ([1]; 31 g ai/ha Postemergence) of the same compound?
**A.** The value was 98.

**Q.** What about the “Plant response rating, Waterhemp_RES1” value ([1]; 62 g ai/ha Postemergence) of the same compound?
**A.** The value was 100.

**Q.** What about the “Plant response rating, Waterhemp_RES1” value ([1]; 125 g ai/ha Postemergence) of the same compound?
**A.** The value was 100.

**Q.** What about the “Plant response rating, Waterhemp_RES2” value ([2]; 16 g ai/ha Postemergence) of the same compound?
**A.** Its value is 95.

**Q.** And the “Plant response rating, Waterhemp_RES2” value ([2]; 31 g ai/ha Postemergence)?
**A.** The value was 90.

**Q.** What about the “Plant response rating, Waterhemp_RES2” value ([2]; 62 g ai/ha Postemergence) of the same compound?
**A.** Its value is 100.

**Q.** And the “Plant response rating, Waterhemp_RES2” value ([2]; 125 g ai/ha Postemergence)?
**A.** The value was 100.

**Q.** What about the pest or weed control at 31 g/ha (kochia (Kochia scoparia) [3]; 31 g ai/ha, scale 0 to 100 (0 no effect, 100 complete control), read-out: Kochia plant response rating) of the same compound?
**A.** Its pest or weed control at 31 g/ha is 100%.

**Q.** What about the pest or weed control at 62 g/ha (kochia (Kochia scoparia) [3]; 62 g ai/ha, scale 0 to 100, 0 no effect, 100 complete control, read-out: Plant response rating, Kochia) of the same compound?
**A.** The pest or weed control at 62 g/ha was 100%.

**Q.** What about the pest or weed control at 125 g/ha (kochia (Kochia scoparia) [3]; 125 g ai/ha, scale 0 to 100, 0 no effect, 100 complete control, read-out: Plant response rating, Kochia) of the same compound?
**A.** The pest or weed control at 125 g/ha was 100%.

**Q.** And the pest or weed control at 31 g/ha (wild oat (Avena fatua); 31 g ai/ha, scale 0 to 100 (0 no effect, 100 complete control), read-out: Oat, Wild plant response rating)?
**A.** The pest or weed control at 31 g/ha was 10%.

**Q.** What about the pest or weed control at 62 g/ha (wild oat (Avena fatua); 62 g ai/ha, scale 0 to 100, 0 no effect, 100 complete control, read-out: Plant response rating, Oat, Wild) of the same compound?
**A.** Its pest or weed control at 62 g/ha is 15%.

**Q.** What about the pest or weed control at 125 g/ha (wild oat (Avena fatua); 125 g ai/ha, scale 0 to 100, 0 no effect, 100 complete control, read-out: Plant response rating, Oat, Wild) of the same compound?
**A.** The pest or weed control at 125 g/ha was 15%.

**Q.** And the pest or weed control at 16 g/ha ([4]; post-emergence, 16 g ai/ha Postemergence)?
**A.** The pest or weed control at 16 g/ha was 95%.

**Q.** What about the pest or weed control at 31 g/ha ([4]; post-emergence, 31 g ai/ha Postemergence) of the same compound?
**A.** The pest or weed control at 31 g/ha was 100%.

**Q.** What about the pest or weed control at 62 g/ha ([4]; post-emergence, 62 g ai/ha Postemergence) of the same compound?
**A.** Its pest or weed control at 62 g/ha is 100%.

**Q.** What about the pest or weed control at 125 g/ha ([4]; post-emergence, 125 g ai/ha Postemergence) of the same compound?
**A.** Its pest or weed control at 125 g/ha is 100%.

**Q.** What about the pest or weed control at 16 g/ha ([4]; pre-emergence, 16 g ai/ha Preemergence) of the same compound?
**A.** Its pest or weed control at 16 g/ha is 100%.

**Q.** What about the pest or weed control at 31 g/ha ([4]; pre-emergence, 31 g ai/ha Preemergence) of the same compound?
**A.** The pest or weed control at 31 g/ha was 100%.

**Q.** And the pest or weed control at 125 g/ha ([4]; pre-emergence, 125 g ai/ha Preemergence)?
**A.** The pest or weed control at 125 g/ha was 100%.

**Q.** What about the pest or weed control at 62 g/ha ([4]; pre-emergence, Preemergence) of the same compound?
**A.** The pest or weed control at 62 g/ha was 100%.

**Q.** And the pest or weed control at 16 g/ha (kochia (Kochia scoparia) [5]; post-emergence, Postemergence)?
**A.** Its pest or weed control at 16 g/ha is 98%.

**Q.** And the pest or weed control at 31 g/ha (kochia (Kochia scoparia) [5]; post-emergence, Postemergence)?
**A.** Its pest or weed control at 31 g/ha is 100%.

**Q.** What about the pest or weed control at 62 g/ha (kochia (Kochia scoparia) [5]; [11]) of the same compound?
**A.** Its pest or weed control at 62 g/ha is 95%.

**Q.** And the pest or weed control at 125 g/ha (kochia (Kochia scoparia) [5]; post-emergence, Postemergence)?
**A.** Its pest or weed control at 125 g/ha is 100%.

**Q.** And the pest or weed control at 16 g/ha (kochia (Kochia scoparia) [5]; pre-emergence, Preemergence)?
**A.** Its pest or weed control at 16 g/ha is 75%.

**Q.** And the pest or weed control at 31 g/ha (kochia (Kochia scoparia) [5]; pre-emergence, Preemergence)?
**A.** Its pest or weed control at 31 g/ha is 98%.

**Q.** What about the pest or weed control at 125 g/ha (kochia (Kochia scoparia) [5]; pre-emergence, Preemergence) of the same compound?
**A.** The pest or weed control at 125 g/ha was 100%.

**Q.** And the pest or weed control at 62 g/ha (kochia (Kochia scoparia) [5]; pre-emergence, Preemergence)?
**A.** The pest or weed control at 62 g/ha was 100%.

**Q.** What about the pest or weed control at 16 g/ha ([6]; 16 g ai/ha Preemergence) of the same compound?
**A.** The pest or weed control at 16 g/ha was 90%.

**Q.** What about the pest or weed control at 31 g/ha ([6]; 31 g ai/ha Preemergence) of the same compound?
**A.** Its pest or weed control at 31 g/ha is 80%.

**Q.** What about the pest or weed control at 125 g/ha ([6]; 125 g ai/ha Preemergence) of the same compound?
**A.** The pest or weed control at 125 g/ha was 98%.

**Q.** What about the pest or weed control at 62 g/ha ([6]; Preemergence) of the same compound?
**A.** The pest or weed control at 62 g/ha was 98%.

**Q.** And the pest or weed control at 16 g/ha ([7]; post-emergence, Postemergence)?
**A.** The pest or weed control at 16 g/ha was 10%.

**Q.** And the pest or weed control at 31 g/ha ([7]; post-emergence, Postemergence)?
**A.** Its pest or weed control at 31 g/ha is 5%.

**Q.** What about the pest or weed control at 62 g/ha [7, 11] of the same compound?
**A.** The pest or weed control at 62 g/ha was 10%.

**Q.** What about the pest or weed control at 125 g/ha ([7]; post-emergence, Postemergence) of the same compound?
**A.** Its pest or weed control at 125 g/ha is 15%.

**Q.** What about the pest or weed control at 16 g/ha ([7]; pre-emergence, Preemergence) of the same compound?
**A.** The pest or weed control at 16 g/ha was 25%.

**Q.** What about the pest or weed control at 31 g/ha ([7]; pre-emergence, Preemergence) of the same compound?
**A.** Its pest or weed control at 31 g/ha is 20%.

**Q.** And the pest or weed control at 125 g/ha ([7]; pre-emergence, Preemergence)?
**A.** Its pest or weed control at 125 g/ha is 90%.

**Q.** And the pest or weed control at 62 g/ha ([7]; pre-emergence, Preemergence)?
**A.** The pest or weed control at 62 g/ha was 40%.

**Q.** And the “Plant response rating, Kochia” value (kochia (Kochia scoparia) [8]; [12])?
**A.** Its value is 90.

**Q.** What about the “Plant response rating, Kochia” value (kochia (Kochia scoparia) [8]; [13]) of the same compound?
**A.** The value was 100.

**Q.** What about the “Plant response rating, Kochia” value (kochia (Kochia scoparia) [8]; [14]) of the same compound?
**A.** The value was 100.

**Q.** And the “Kochia plant response rating” value (kochia (Kochia scoparia) [8]; [15])?
**A.** Its value is 100.

**Q.** And the “Plant response rating, Ragweed” value [9, 12]?
**A.** The value was 0.

**Q.** What about the “Plant response rating, Ragweed” value [9, 13] of the same compound?
**A.** Its value is 50.

**Q.** What about the “Plant response rating, Ragweed” value [9, 14] of the same compound?
**A.** The value was 20.

**Q.** What about the “Ragweed plant response rating” value [9, 15] of the same compound?
**A.** The value was 20.

**Q.** And the “Plant response rating, Ryegrass, Italian” value [10, 12]?
**A.** Its value is 0.

**Q.** And the “Plant response rating, Ryegrass, Italian” value [10, 13]?
**A.** Its value is 80.

**Q.** What about the “Plant response rating, Ryegrass, Italian” value [10, 14] of the same compound?
**A.** Its value is 20.

**Q.** And the “Ryegrass, Italian plant response rating” value [10, 15]?
**A.** The value was 40.
